Values after ≈ are worked out from the molar mass of the structure shown.
What was measured:
LOX IMVI = assay: Antiproliferative activity against human LOX IMVI cells assessed as inhibition of cell growth incubated for 24 to 48 hrs by SRB assay; type: functional, cell-based
MCF7 [1] = assay: Antiproliferative activity against human MCF7 cells assessed as inhibition of cell growth incubated for 72 hrs by MTT assay; type: functional, cell-based; settings: MCF7, 72 h
J774.2 = assay: Antiproliferative activity against mouse J774.2 cells assessed as inhibition of cell growth incubated for 72 hrs by MTT assay; type: functional, cell-based; settings: J774.2, 72 h
[2] = Antiproliferative activity against human KB-ChR-8-5-11 cells assessed as inhibition of cell growth incubated for 72 hrs by MTT assay; type: functional, cell-based; settings: KB-ChR-8-5-11, 72 h
Jurkat = assay: Antiproliferative activity against human Jurkat cells assessed as inhibition of cell growth incubated for 72 hrs by MTT assay; type: functional, cell-based
THP-1 = assay: Antiproliferative activity against human THP-1 cells assessed as inhibition of cell growth incubated for 72 hrs by MTT assay; type: functional, cell-based; settings: THP-1, 72 h
HCT-116 [3] = assay: Antiproliferative activity against human HCT-116 cells assessed as inhibition of cell growth incubated for 72 hrs by MTT assay; type: functional, cell-based; settings: HCT-116, 72 h
MCF7 [4] = assay: Antiproliferative activity against human MCF7 cells assessed as inhibition of cell growth incubated for 24 hrs by MTT assay; type: functional, cell-based; settings: MCF7, 24 h
HeLa [5] = assay: Antiproliferative activity against human HeLa cells assessed as inhibition of cell growth incubated for 24 hrs by MTT assay; type: functional, cell-based
HepG2 [6] = assay: Antiproliferative activity against human HepG2 cells assessed as inhibition of cell growth incubated for 24 hrs by MTT assay; type: functional, cell-based; settings: HepG2, 24 h
SF-295 = assay: Antiproliferative activity against human SF-295 cells assessed as inhibition of cell growth incubated for 72 hrs by MTT assay; type: functional, cell-based; settings: SF-295, 72 h
MDA-MB-435 = assay: Antiproliferative activity against human MDA-MB-435 cells assessed as inhibition of cell growth incubated for 72 hrs by MTT assay; type: functional, cell-based; settings: MDA-MB-435, 72 h
OVCAR-8 = assay: Antiproliferative activity against human OVCAR-8 cells assessed as inhibition of cell growth incubated for 72 hrs by MTT assay; type: functional, cell-based; settings: OVCAR-8, 72 h
HCT-8 = assay: Antiproliferative activity against human HCT-8 cells assessed as inhibition of cell growth incubated for 72 hrs by MTT assay; type: functional, cell-based; settings: HCT-8, 72 h
HL-60 [7] = assay: Antiproliferative activity against human HL-60 cells assessed as inhibition of cell growth incubated for 72 hrs by MTT assay; type: functional, cell-based; settings: HL-60, 72 h
[8] = Antiproliferative activity against human NCI-H358M cells assessed as inhibition of cell growth incubated for 72 hrs by MTT assay; type: functional, cell-based
PC-3M = assay: Antiproliferative activity against human PC-3M cells assessed as inhibition of cell growth incubated for 72 hrs by MTT assay; type: functional, cell-based
HT-29 = assay: Antiproliferative activity against human HT-29 cells assessed as inhibition of cell growth incubated for 72 hrs by MTT assay; type: functional, cell-based; settings: HT-29, 72 h
MOLT-4 = assay: Antiproliferative activity against human MOLT-4 cells assessed as inhibition of cell growth incubated for 72 hrs by MTT assay; type: functional, cell-based; settings: MOLT-4, 72 h
[9] = Antiproliferative activity against human NCI-H322T cells assessed as inhibition of cell growth incubated for 48 hrs by MTT assay; type: functional, cell-based
A549 = assay: Antiproliferative activity against human A549 cells assessed as inhibition of cell growth incubated for 48 hrs by MTT assay; type: functional, cell-based; settings: A549, 48 h
HepG2 [10] = assay: Antiproliferative activity against human HepG2 cells assessed as inhibition of cell growth incubated for 48 hrs by MTT reagent based colorimetric assay; type: functional; settings: HepG2, 48 h
HeLa [11] = assay: Antiproliferative activity against human HeLa cells assessed as inhibition of cell growth incubated for 48 hrs by MTT reagent based colorimetric assay; type: functional
HL-60 [12] = assay: Antiproliferative activity against human HL-60 cells assessed as inhibition of cell growth incubated for 72 hrs by MTT reagent based spectral analysis; type: functional; settings: HL-60, 72 h
KB = assay: Antiproliferative activity against human KB cells assessed as inhibition of cell growth incubated for 72 hrs by MTT assay; type: functional, cell-based
HepG2 [13] = assay: Antiproliferative activity against human HepG2 cells assessed as inhibition of cell growth incubated for 72 hrs by MTT assay; type: functional, cell-based; settings: HepG2, 72 h
SiHa = assay: Antiproliferative activity against human SiHa cells; type: functional, cell-based
NCI-H460 = assay: Antiproliferative activity against human NCI-H460 cells assessed as inhibition of cell growth incubated for 72 hrs by MTT assay; type: functional, cell-based; settings: NCI-H460, 72 h
DU-145 = assay: Antiproliferative activity against human DU-145 cells assessed as inhibition of cell growth incubated for 72 hrs by MTT assay; type: functional, cell-based; settings: DU-145, 72 h
HCT-15 = assay: Cytotoxicity against human HCT-15 cells incubated for 48 hrs by MTT assay; type: functional, cell-based; settings: HCT-15, 48 h
MDA-MB-231 [14] = assay: Cytotoxicity against human MDA-MB-231 cells incubated for 48 hrs by MTT assay; type: functional, cell-based; settings: MDA-MB-231, 48 h
Bel-7402 = assay: Cytotoxicity against human Bel-7402 cells incubated for 48 hrs by MTT assay; type: functional, cell-based; settings: Bel-7402, 48 h
HCT-116 [15] = assay: Cytotoxicity against human HCT-116 cells incubated for 48 hrs by MTT assay; type: functional, cell-based; settings: HCT-116, 48 h
MDA-MB-231 [16] = assay: Antiproliferative activity against human MDA-MB-231 cells assessed as inhibition of cell growth incubated for 72 hrs by trypan blue exclusion assay; type: functional, cell-based; settings: MDA-MB-231, 72 h
DBTRG-05MG = assay: Antiproliferative activity against human DBTRG-05MG cells assessed as inhibition of cell growth incubated for 72 hrs by cell counting kit method; type: functional, cell-based; settings: dbtrg-05mg

With COc1cc(C2C3=C(Sc4[nH]c(=O)sc42)C(=O)c2ccccc2C3=O)ccc1O (stereo not given) the IC50 (LOX IMVI) was 0.16 µM.

For O=C1C2=C(C(=O)c3ccccc31)C(CCc1ccccc1)c1sc(=O)[nH]c1S2 (stereo not given), the IC50 (MCF7 [1]) was 8.94 µM, the IC50 (J774.2) was 9.57 µM and the IC50 [2] was 12.8 µM. It also gave an IC50 (Jurkat) of 0.76 µM, an IC50 (THP-1) of 7.94 µM and an IC50 (HCT-116 [3]) of 6.37 µM.

Compound O=C1C=C(SCCC(=O)N2CCN(c3ccccc3F)CC2)C(=O)c2ccccc21 has an IC50 (MCF7 [4]) of 16.1 µM, an IC50 (HeLa [5]) of 13 µM and an IC50 (HepG2 [6]) of 18.7 µM.

For C[C@H](NC1=CC(=O)c2ccccc2C1=O)C(=O)O, the IC50 (HCT-116 [3]) was 4.52 µM, the IC50 (SF-295) was 2.56 µM and the IC50 (MDA-MB-435) was 1.99 µM. It also gave an IC50 (OVCAR-8) of 9.61 µM, an IC50 (HCT-8) of 3.38 µM and an IC50 (HL-60 [7]) of 4.27 µM. For the same compound, the IC50 [8] was 3.36 µM and the IC50 (PC-3M) was 6.55 µM.

Cc1ccc(Cn2cc(CNC3=CC(=O)c4ccccc4C3=O)nn2)cc1 gave an IC50 (MCF7 [1]) of 10.4 µM, an IC50 (HT-29) of 6.8 µM and an IC50 (MOLT-4) of 8.4 µM.

N#Cc1ccccc1-n1cc(COc2cccc3c2C(=O)C=CC3=O)nn1 showed an IC50 [9] of 7.94 µM and an IC50 (A549) of 4.67 µM.

With O=C1C=C(Nc2cccc(F)c2)C(=O)c2ccccc21 the IC50 (A549) was 6.15 µM.

COc1cc(C2C3=C(Nc4cc5c(cc42)OCO5)C(=O)c2ccccc2C3=O)cc(OC)c1OC (stereo not given) showed an IC50 (HepG2 [10]) of 14.6 µM and an IC50 (HeLa [11]) of 26.8 µM.

Compound CSc1ccc(-c2c(-c3ccc(SC)cc3)n3c4c(c(-c5ccc(SC)cc5)c3c3ccc(SC)cc23)C(=O)c2ccccc2C4=O)cc1 has an IC50 (HL-60 [12]) of 2.92 µM.

Compound O=C1OCC2=C1C(c1ccc(Oc3ccc(F)cc3)cc1)C1=C(N2)C(=O)c2ccccc2C1=O (stereo not given) has an IC50 (KB) of 0.6 µM, an IC50 (HepG2 [13]) of 1.05 µM and an IC50 (MCF7 [1]) of 2.12 µM.

O=C(Nc1ccc(S(=O)(=O)c2ccc3[nH]c4c(c3c2)C(=O)c2ccccc2C4=O)cc1)c1cc([N+](=O)[O-])cc([N+](=O)[O-])c1 showed an IC50 (SiHa) of 20 µg/mL (≈ 33.5 µM).

For COc1ccc(N(Cc2cn(S(=O)(=O)c3ccc(C)cc3)nn2)C2=CC(=O)c3ccccc3C2=O)cc1, the IC50 (MCF7 [1]) was 0.58 µM, the IC50 (Jurkat) was 0.31 µM and the IC50 (HCT-116 [3]) was 0.46 µM. For the same compound, the IC50 (SF-295) was 0.42 µM, the IC50 (MDA-MB-435) was 0.56 µM and the IC50 (NCI-H460) was 0.38 µM. The IC50 (OVCAR-8) was 0.85 µM and the IC50 (DU-145) was 0.38 µM.

Compound C=CC(C)(C)C(OCCCCCCO)c1cc(OC)c2c(c1OC)/C(=N\O)C=C/C2=N\O (stereo not given) has an IC50 (HCT-15) of 30.2 µM, an IC50 (MDA-MB-231 [14]) of 8.46 µM and an IC50 (Bel-7402) of 6.53 µM. For the same compound, the IC50 (HCT-116 [15]) was 23.5 µM.

Work on COC1=CC(=O)c2ccccc2C1=O [2-Methoxy-1,4-naphthoquinone] yielded an IC50 (MDA-MB-231 [16]) of 7.5 µM.

Work on SODIUM ORTHOVANAD yielded an IC50 (DBTRG-05MG) of 25 µM.
